# Results: US8895695B2, “Template-fixed beta-hairpin peptidomimetics with CXCR4 antagonizing activity” (priority 2003, dated 2014)
# Bridge positions count the residues as written; N and C are the ends. Square brackets hold non-standard residues; d marks the D form. Peptide text beside a SMILES is read from it. 2Nal = N[C@@H](Cc1ccc2ccccc2c1)C(=O)O; Cit = NC(=O)NCCC[C@H](N)C(=O)O; Dab = NCC[C@H](N)C(=O)O
# Key:
# [1] = test system: human red blood cells (hRBC); assay: Hemolysis; format: cell-based
# Procedure, shortened: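 Washed fresh human erythrocytes (20% v/v, about 0.9×10^9 cells/ml final) incubated with peptide at 100 μM for 1 h at 37° C. Supernatant diluted 20-fold and OD540 read. Percent hemolysis relative to 0.1% Triton X-100 in H2O (100%), with PBS alone as 0%.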
# [2] = in vitro; format: in vitro ADME; details: plasma
# Procedure: 405 μl of plasma/albumin solution were placed in a polypropylene (PP) tube and spiked with 45 μl of compound from a 100 μM solution B, derived from 135 μl of PBS and 15 μl of 1 mM peptide in PBS, pH 7.4. 150 μl aliquots were transferred into individual wells of the 10 kDa filter plate (Millipore MAPPB 1010 Biomax membrane). For “0 minutes controls”: 270 μl of PBS were placed in a PP tube and 30 μl of stock solution B was added and vortexed. 150 μl of control solution was placed into one well of the filter plate and serves as “filtered control”.
# Further 150 μl of control solution were placed directly into a receiver well (reserved for filtrate) and serve as “not-filtered control”. The entire plate including evaporation lid was incubated for 60 min at 37° C. Plasma samples (rat plasma: Harlan Sera lab UK, human plasma: Blutspendezentrum Zürich) were centrifuged at least for 2 h at 4300 rpm (3500 g) and 15° C. in order to yield 100 μl filtrate. For “serum albumin”-samples (freshly prepared human albumin: Sigma A-4327, rat albumin: Sigma A-6272, all at 40 mg/ml concentration in PBS) approximately 1 hour of centrifugation is sufficient. The filtrates in the receiver PP plate were analysed by LC/MS as followes: Column: Jupiter C18 (Phenomenex), mobile phases: (A) 0.1% formic acid in water and (B) acetonitrile, gradient: 5%-100% (B) in 2 minutes, electrospray ionization, MRM detection (triple quadrupole). The peak areas were determined and triplicate values are averaged. The binding is expressed in percent of the (filtered and not-filtered time point 0 min) control 1 and 2 by: 100−(100*T60/T0). The average from these values is then calculated (see ref. 9 below).
# [3] = biological target: CXCR4 (Homo sapiens, UniProt P61073); assay: Ca2+-assay method 2 (Flexstation, SDF-1 induced calcium mobilization); format: cell-based; design: expressed in transfected cells; host or cells: mouse pre-B cell line 300-19; details: method 2 (Ex. 54-160), mouse pre-B cell line 300-19 with human CXCR4, 10 nM SDF-1; read-out: IC50 (nM) Ca^2+ assay
# [4] = in vitro; details: human
# 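For GI50 in this document: MTT reduction read as absorbance at 595 nm, blank-corrected and expressed as percent growth relative to the time-zero cell reading, triplicate wells per concentration.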
# Chain of CXCR4 (P61073 whole entry): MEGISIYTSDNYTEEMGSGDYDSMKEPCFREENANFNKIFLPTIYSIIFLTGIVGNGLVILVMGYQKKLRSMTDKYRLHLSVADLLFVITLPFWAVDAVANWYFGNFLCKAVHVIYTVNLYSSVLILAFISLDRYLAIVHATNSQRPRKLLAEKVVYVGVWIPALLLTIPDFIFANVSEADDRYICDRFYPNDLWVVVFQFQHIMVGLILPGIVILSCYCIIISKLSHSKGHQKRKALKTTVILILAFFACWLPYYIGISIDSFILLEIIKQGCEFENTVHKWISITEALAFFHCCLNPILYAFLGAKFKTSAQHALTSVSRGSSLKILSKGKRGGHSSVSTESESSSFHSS
Compound,Hemolysis at 100 μM [1] [%],half-life at 10 μM ([2]; human) [h],half-life at 10 μM ([2]; rat) [h],IC50 [3] [nM],GI50 at 48 h [4] [µM]
N=C(N)NCCC[C@@H]1NC(=O)[C@@H]2CSSC[C@H](NC(=O)[C@H](Cc3ccc4ccccc4c3)NC(=O)[C@H](CCCNC(=N)N)NC(=O)[C@H](CCCNC(=N)N)NC(=O)[C@H]3CCCN3C(=O)CNC1=O)C(=O)N[C@@H](Cc1ccc(O)cc1)C(=O)N[C@@H](CCC(N)=O)C(=O)N[C@@H](CCC(N)=O)C(=O)N1CCC[C@@H]1C(=O)N1CCC[C@H]1C(=O)N[C@@H](Cc1ccc(O)cc1)C(=O)N[C@@H](CCCNC(=N)N)C(=O)N[C@@H](CCCNC(N)=O)C(=O)N2 [Ex. 60] (cyclo(YR[Cit]CRG[dP]RR[2Nal]CYQQ[dP]P); disulfide 4-11),0.1,> 5,> 5,0.18,62
N=C(N)NCCC[C@@H]1NC(=O)[C@@H]2CSSC[C@H](NC(=O)[C@H](Cc3ccc4ccccc4c3)NC(=O)[C@H](CCCNC(=N)N)NC(=O)[C@H](CCCNC(=N)N)NC(=O)[C@H]3CCCN3C(=O)CNC1=O)C(=O)N[C@@H](Cc1ccc(O)cc1)C(=O)N[C@@H](CCC(N)=O)C(=O)N[C@@H](CCC(=O)O)C(=O)N1CCC[C@@H]1C(=O)N1CCC[C@H]1C(=O)N[C@@H](Cc1ccc(O)cc1)C(=O)N[C@@H](CCCNC(=N)N)C(=O)N[C@@H](CCCNC(N)=O)C(=O)N2 [Ex. 61] (cyclo(YR[Cit]CRG[dP]RR[2Nal]CYQE[dP]P); disulfide 4-11),0.3,4.55,> 5,4.1,> 100
N=C(N)NCCC[C@@H]1NC(=O)[C@@H]2CSSC[C@H](NC(=O)[C@H](Cc3ccc4ccccc4c3)NC(=O)[C@H](CCCNC(=N)N)NC(=O)[C@H](CCCNC(=N)N)NC(=O)[C@H]3CCCN3C(=O)CNC1=O)C(=O)N[C@@H](Cc1ccc(O)cc1)C(=O)N[C@@H](CCC(N)=O)C(=O)N[C@@H](CCCCN)C(=O)N1CCC[C@@H]1C(=O)N1CCC[C@H]1C(=O)N[C@@H](CCC(=O)O)C(=O)N[C@@H](CCCNC(=N)N)C(=O)N[C@@H](CCCNC(N)=O)C(=O)N2 [Ex. 68] (cyclo(ER[Cit]CRG[dP]RR[2Nal]CYQK[dP]P); disulfide 4-11),0.1,2.12,1.35,1.1,> 100
N=C(N)NCCC[C@@H]1NC(=O)[C@@H]2CSSC[C@H](NC(=O)[C@H](Cc3ccc4ccccc4c3)NC(=O)[C@H](CCCNC(=N)N)NC(=O)[C@H](CCCNC(=N)N)NC(=O)[C@H]3CCCN3C(=O)CNC1=O)C(=O)N[C@@H](Cc1ccc(O)cc1)C(=O)N[C@@H](CCC(N)=O)C(=O)N[C@@H](CCCCN)C(=O)N1CCC[C@@H]1C(=O)N1CCC[C@H]1C(=O)N[C@@H](Cc1ccc(O)cc1)C(=O)N[C@@H](CCCNC(=N)N)C(=O)N[C@@H](CCC(=O)O)C(=O)N2 [Ex. 75] (cyclo(YRECRG[dP]RR[2Nal]CYQK[dP]P); disulfide 4-11),0,3.13,2.37,3.5,> 100
N=C(N)NCCC[C@@H]1NC(=O)[C@@H]2CSSC[C@H](NC(=O)[C@H](Cc3ccc4ccccc4c3)NC(=O)[C@H](CCCNC(=N)N)NC(=O)[C@H](CCCNC(=N)N)NC(=O)[C@H]3CCCN3C(=O)CNC1=O)C(=O)N[C@@H](Cc1ccc(O)cc1)C(=O)N[C@@H](CCC(N)=O)C(=O)N[C@@H](CC(=O)O)C(=O)N1CCC[C@@H]1C(=O)N1CCC[C@H]1C(=O)N[C@@H](Cc1ccc(O)cc1)C(=O)N[C@@H](CCCNC(=N)N)C(=O)N[C@@H](CCCNC(N)=O)C(=O)N2 [Ex. 85] (cyclo(YR[Cit]CRG[dP]RR[2Nal]CYQD[dP]P); disulfide 4-11),0,2.77,> 5,2.7,94
N=C(N)NCCC[C@@H]1NC(=O)[C@H](CCCNC(=N)N)NC(=O)[C@H]2CCCN2C(=O)CNC(=O)[C@H](CO)NC(=O)[C@@H]2CSSC[C@H](NC(=O)[C@H](Cc3ccc4ccccc4c3)NC1=O)C(=O)N[C@@H](Cc1ccc(O)cc1)C(=O)N[C@@H](CCC(N)=O)C(=O)N[C@@H](CCCCN)C(=O)N1CCC[C@@H]1C(=O)N1CCC[C@H]1C(=O)N[C@@H](Cc1ccc(O)cc1)C(=O)N[C@@H](CCCNC(=N)N)C(=O)N[C@@H](CCCNC(N)=O)C(=O)N2 [Ex. 101] (cyclo(YR[Cit]CSG[dP]RR[2Nal]CYQK[dP]P); disulfide 4-11),0.6,> 5,4.12,1.28,74
N=C(N)NCCC[C@@H]1NC(=O)[C@@H]2CSSC[C@H](NC(=O)[C@H](Cc3c[nH]c4ccccc34)NC(=O)[C@H](CCCNC(=N)N)NC(=O)[C@H](CCCNC(=N)N)NC(=O)[C@H]3CCCN3C(=O)CNC1=O)C(=O)N[C@@H](Cc1ccc(O)cc1)C(=O)N[C@@H](CCCNC(N)=O)C(=O)N[C@@H](CC(=O)O)C(=O)N1CCC[C@@H]1C(=O)N1CCC[C@H]1C(=O)N[C@@H](Cc1ccc(O)cc1)C(=O)N[C@@H](CCCNC(=N)N)C(=O)N[C@@H](CO)C(=O)N2 [Ex. 102] (cyclo(YRSCRG[dP]RRWCY[Cit]D[dP]P); disulfide 4-11),0.5,4.25,4.08,8,33
C[C@@H](O)[C@@H]1NC(=O)[C@H](Cc2c[nH]cn2)NC(=O)[C@H](Cc2ccc(O)cc2)NC(=O)[C@@H]2CCCN2C(=O)[C@H]2CCCN2C(=O)[C@H](CCCCN)NC(=O)[C@H](CCC(N)=O)NC(=O)[C@H](Cc2ccc(O)cc2)NC(=O)[C@@H]2CSSC[C@H](NC1=O)C(=O)N[C@@H](CCCNC(=N)N)C(=O)NCC(=O)N1CCC[C@@H]1C(=O)N[C@@H](CCCNC(=N)N)C(=O)N[C@@H](CCCNC(=N)N)C(=O)N[C@@H](Cc1c[nH]c3ccccc13)C(=O)N2 [Ex. 120] (cyclo(YHTCRG[dP]RRWCYQK[dP]P); disulfide 4-11),0,0.65,2.9,–,78
N=C(N)NCCC[C@@H]1NC(=O)[C@@H]2CCC(=O)NCC[C@H](NC(=O)[C@H](Cc3c[nH]c4ccccc34)NC(=O)[C@H](CCCNC(=N)N)NC(=O)[C@H](CCCNC(=N)N)NC(=O)[C@H]3CCCN3C(=O)CNC1=O)C(=O)N[C@@H](Cc1ccc(O)cc1)C(=O)N[C@@H](CCCNC(N)=O)C(=O)N[C@@H](CCCCN)C(=O)N1CCC[C@@H]1C(=O)N1CCC[C@H]1C(=O)N[C@@H](Cc1ccc(O)cc1)C(=O)N[C@@H](CCCNC(=N)N)C(=O)N[C@@H](CCCNC(N)=O)C(=O)N2 [Ex. 153] (cyclo(YR[Cit]ERG[dP]RRW[Dab]Y[Cit]K[dP]P); lactam 4-11),1.7,–,–,21.9,43
N=C(N)NCCC[C@@H]1NC(=O)[C@@H]2CSSC[C@H](NC(=O)[C@H](Cc3ccc4ccccc4c3)NC(=O)[C@H](CCCNC(=N)N)NC(=O)[C@H](CCCNC(=N)N)NC(=O)[C@H]3CCCN3C(=O)CNC1=O)C(=O)N[C@@H](Cc1ccc(O)cc1)C(=O)N[C@@H](CCCNC(=N)N)C(=O)N[C@@H](CCCCN)C(=O)N1CCC[C@@H]1C(=O)N1CCC[C@H]1C(=O)N[C@@H](Cc1ccc(O)cc1)C(=O)N[C@@H](CCCNC(=N)N)C(=O)N[C@@H](CCCNC(N)=O)C(=O)N2 [compound 57] (cyclo(YR[Cit]CRG[dP]RR[2Nal]CYRK[dP]P); disulfide 4-11),0.1,–,–,4.2,33
N=C(N)NCCC[C@@H]1NC(=O)[C@@H]2CSSC[C@H](NC(=O)[C@H](Cc3ccc4ccccc4c3)NC(=O)[C@H](CCCNC(=N)N)NC(=O)[C@H](CCCNC(=N)N)NC(=O)[C@H]3CCCN3C(=O)CNC1=O)C(=O)N[C@@H](Cc1ccc(O)cc1)C(=O)N[C@@H](CCC(N)=O)C(=O)N[C@@H](CCCCN)C(=O)N1CCC[C@@H]1C(=O)N1CCC[C@H]1C(=O)N[C@@H](CCCNC(=N)N)C(=O)N[C@@H](CCCNC(=N)N)C(=O)N[C@@H](CCCNC(N)=O)C(=O)N2 [compound 63] (cyclo(RR[Cit]CRG[dP]RR[2Nal]CYQK[dP]P); disulfide 4-11),0.2,–,–,2,58
